Biological target: T1, ER (Homo sapiens, UniProt P03372)
T1 construct: transfected in MCF7 cells (containing endogenous ER); endogenous in cells; host or cells: MCF7 cells
T1 sequence (P03372 1-595): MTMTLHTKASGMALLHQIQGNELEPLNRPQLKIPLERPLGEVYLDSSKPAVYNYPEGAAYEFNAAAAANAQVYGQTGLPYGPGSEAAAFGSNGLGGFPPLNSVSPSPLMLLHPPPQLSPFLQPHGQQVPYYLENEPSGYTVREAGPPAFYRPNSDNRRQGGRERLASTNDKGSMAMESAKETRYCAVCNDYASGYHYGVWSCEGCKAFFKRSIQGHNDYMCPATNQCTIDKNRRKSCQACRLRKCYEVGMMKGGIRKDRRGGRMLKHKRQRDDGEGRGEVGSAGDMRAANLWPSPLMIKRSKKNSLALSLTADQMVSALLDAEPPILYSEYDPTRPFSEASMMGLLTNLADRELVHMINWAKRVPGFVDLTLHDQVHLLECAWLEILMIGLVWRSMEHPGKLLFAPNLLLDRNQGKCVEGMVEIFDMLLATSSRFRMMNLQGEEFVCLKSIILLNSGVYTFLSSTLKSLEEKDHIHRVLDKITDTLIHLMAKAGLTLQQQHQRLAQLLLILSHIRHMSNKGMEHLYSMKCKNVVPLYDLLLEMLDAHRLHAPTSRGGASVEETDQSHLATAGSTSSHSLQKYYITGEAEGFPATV
Test: ER transcription assay (MCF7 cells), ERE-luciferase reporter
Type: cell-based
Conditions: MCF7 cells, ER reporter gene, 0.1 nM 17β estradiol, 24 hours; read-out: MCF7 IC50 (inflection point of the inhibition of transcription in MCF7 cells)
From the text: ER Transcription Assay (MCF7 Cells)
The ER transcription assay is a reporter assay that is based on the ability of ER to induce transcription from a luciferase reporter gene containing estrogen response elements (EREs) in the promoter/enhancer region. When the reporter gene is transfected in MCF7 cells (containing endogenous ER), transcription is reflected by the level of luciferase expression.
A day before transfection, cells are split into a T75 flask at a cell density of 300,000 cells/mL (10 mL total) and allowed to attach overnight in a humidified CO2 incubator at 37° C.
Approximately 20 ug DNA is mixed in OptiMEM (Invitrogen) to a total volume of 650 μL. Following incubation, the OptiMEM-DNA mixture is added to the OptiMEM-Lipofectin mix and incubated for 15 minutes at 37° C. The DNA-Lipofectin mixture is then added directly to the T75 flask and the flask is returned to the incubator.
After overnight incubation, compound is added to individual wells of a 96-well plate in a 10 μL volume of media at 10× concentration along with 17β estradiol whose final concentration is 0.1 nM. Normally, DMSO (used as a vehicle) is included to achieve a final concentration of 0.1% when added to the cells. Transfected cells are trypsinized, resuspended in DMEM/F12/10% charcoal-stripped serum and added to the 96-well plate at 25,000 cells/well in 90 μL of media. The plate is then returned to the incubator for 24 hours.
After incubation with compounds for 24 hours, Firefly and Renilla luciferase activities are measured to determine ER transcriptional activity. Media is removed from 96-well plates by decanting and blotting on paper towels.
One second total read time after a one second delay.
One second total read time after one second delay. If Firefly luciferase signal is high, Renilla assay must be done an hour after the Firefly assay due to incomplete squelching of Firefly signal.
The data describing the antagonist and degradation properties for the examples is compiled in table 10. The column titled MCF7 IC50 reports the inflection point of the inhibition of transcription in MCF7 cells as described above. Percentage ERα remaining reports the remaining ERα protein measured at 10 μM concentration of the ligand as described above. The column ERα IC50 reports the inflection point of the degradation in response to the ligand concentration.

| SMILES | IC50 |
| --- | --- |
| O=C(/C=C/c1ccc(Oc2c(-c3ccc(F)cc3)sc3cc(O)ccc23)cc1)NCCC(F)(F)F [Example 33, (E)-3-(4-((2-(4-fluorophenyl)-6-hydroxybenzo[b]-thiophen-3-yl)oxy)phenyl)-N-(3,3,3-trifluoropropyl)-acrylamide] | 73 nM |
| CCOC(=O)/C=C/c1ccc(Oc2c(-c3ccc(O)cc3)sc3cc(O)ccc23)cc1C [Example 34, (E)-ethyl 3-(4-((6-hydroxy-2-(4-hydroxyphenyl)benzo[b]-thiophen-3-yl)oxy)-2-methylphenyl)acrylate] | 48 nM |
| CCOC(=O)/C=C/c1ccc(Oc2c(-c3ccc(O)cc3)sc3cc(O)ccc23)c(C)c1 [Example 35, (E)-ethyl 3-(4-((6-hydroxy-2-(4-hydroxyphenyl)benzo[b]-thiophen-3-yl)oxy)-3-methylphenyl)acrylate] | 103 nM |
| COC(=O)/C=C/c1ccc(Oc2c(-c3ccc(F)cc3)sc3cc(O)ccc23)cc1 [Example 36, (E)-methyl 3-(4-((2-(4-fluorophenyl)-6-hydroxybenzo[b]thiophen-3-yl)oxy)phenyl)-acrylate] | 137 nM |
| COC(=O)/C=C/c1ccc(Oc2c(-c3ccc(O)cc3)sc3c(F)c(O)c(F)cc23)cc1 [Example 37, (E)-methyl 3-(4-((5,7-difluoro-6-hydroxy-2-(4-hydroxyphenyl)-benzo[b]thiophen-3-yl)oxy)phenyl)acrylate] | 41 nM |
| O=C(O)/C=C/c1ccc(Oc2c(-c3ccc(O)cc3)sc3c(F)c(O)c(F)cc23)cc1 [Example 38, (E)-3-(4-((5,7-difluoro-6-hydroxy-2-(4-hydroxyphenyl)benzo[b]-thiophen-3-yl)oxy)phenyl)acrylic acid] | 152 nM |
| O=C(O)/C=C/c1ccc(Oc2c(-c3ccc(O)cc3)sc3c(F)c(O)ccc23)cc1 [Example 39, (E)-3-(4-((7-fluoro-6-hydroxy-2-(4-hydroxyphenyl)benzo[b]-thiophen-3-yl)oxy)phenyl)acrylic acid] | 653 nM |
| O=C(O)/C=C/c1ccc(Oc2c(-c3ccc(O)c(F)c3)sc3cc(O)ccc23)cc1 [Example 40, (E)-3-(4-((2-(3-fluoro-4-hydroxyphenyl)-6-hydroxybenzo[b]thiophen-3-yl)oxy)phenyl)acrylic acid] | 424 nM |
| Cc1nnc(/C=C/c2ccc(Oc3c(-c4ccc(F)cc4C)sc4cc(O)ccc34)cc2)o1 [Example 46, (E)-2-(4-fluoro-2-methylphenyl)-3-(4-(2-(5-methyl-1,3,4-oxadiazol-2-yl)vinyl)phenoxy)benzo[b]thiophen-6-ol] | 108 nM |
| CCCc1nnc(/C=C/c2ccc(Oc3c(-c4ccc(F)cc4C)sc4cc(O)ccc34)cc2)o1 [Example 47, (E)-2-(4-fluoro-2-methylphenyl)-3-(4-(2-(5-propyl-1,3,4-oxadiazol-2-yl)vinyl)phenoxy)benzo [b]thiophen-6-ol] | 111 nM |
| Cc1cc(F)ccc1-c1sc2cc(O)ccc2c1Oc1ccc(/C=C/c2n[nH]c(=O)o2)cc1 [Example 48, (E)-5-(4-((2-(4-fluoro-2-methylphenyl)-6-hydroxybenzo[b]thiophen-3-yl)oxy)styryl)-1,3,4-oxadiazol-2(3H)-one] | 422 nM |
| Cc1nnc(/C=C/c2ccc(Oc3c(-c4ccc(F)cc4C)sc4cc(O)ccc34)cc2)[nH]1 [Example 49, (E)-2-(4-fluoro-2-methylphenyl)-3-(4-(2-(5-methyl-4H-1,2,4-triazol-3-yl)vinyl)phenoxy)benzo[b]thiophen-6-ol] | 41 nM |
| O=c1nc(/C=C/c2ccc(Oc3c(-c4ccc(O)cc4)sc4cc(O)ccc34)cc2)cc(C(F)(F)F)[nH]1 [Example 50, (E)-4-(4-((6-hydroxy-2-(4-hydroxyphenyl)-benzo[b]thiophen-3-yl)oxy)styryl)-6-(trifluoromethyl)-pyrimidin-2(1H)-one] | 154 nM |
| Cc1cc(F)ccc1-c1sc2cc(O)ccc2c1Oc1ccc(/C=C/c2nnnn2C)cc1 [Example 51, (E)-2-(4-fluoro-2-methylphenyl)-3-(4-(2-(1-methyl-1H-tetrazol-5-yl)vinyl)phenoxy)-benzo[b]thiophen-6-ol] | 61 nM |
| Cn1nnnc1/C=C/c1ccc(Oc2c(-c3ccc(F)cc3)sc3cc(O)ccc23)cc1 [Example 52, (E)-2-(4-fluorophenyl)-3-(4-(2-(1-methyl-1H-tetrazol-5-yl)vinyl)phenoxy)benzo [b]thiophen-6-ol] | 5980 nM |
| CCCn1nnnc1/C=C/c1ccc(Oc2c(-c3ccc(F)cc3C)sc3cc(O)ccc23)cc1 [Example 53, (E)-2-(4-fluoro-2-methylphenyl)-3-(4-(2-(1-propyl-1H-tetrazol-5-yl)vinyl)phenoxy) benzo[b]thiophen-6-ol] | 320 nM |
| Cn1nnnc1/C=C/c1ccc(Oc2c(-c3ccc(O)cc3)sc3cc(O)ccc23)cc1 [Example 54, (E)-2-(4-hydroxyphenyl)-3-(4-(2-(1-methyl-1H-tetrazol-5-yl)vinyl)-phenoxy)benzo[b]thiophen-6-ol] | 1 nM |
| Cn1nnc(/C=C/c2ccc(Oc3c(-c4ccc(O)cc4)sc4cc(O)ccc34)cc2)n1 [Example 55, (E)-2-(4-hydroxyphenyl)-3-(4-(2-(2-methyl-2H-tetrazol-5-yl)vinyl)-phenoxy)benzo[b]-thiophen-6-ol] | 3 nM |
| Cc1cc(Oc2c(-c3ccc(O)cc3)sc3cc(O)ccc23)ccc1/C=C/C(=O)O [Example 56, (E)-3-(4-((6-hydroxy-2-(4-hydroxyphenyl)-benzo[b]thiophen-3-yl)oxy)-2-methylphenyl)-acrylic acid] | 1270 nM |
| Cc1cc(/C=C/C(=O)O)ccc1Oc1c(-c2ccc(O)cc2)sc2cc(O)ccc12 [Example 57, (E)-3-(4-((6-hydroxy-2-(4-hydroxyphenyl)-benzo[b]thiophen-3-yl)oxy)-3-methylphenyl)acrylic acid] | 1030 nM |
| O=C(O)/C=C/c1ccc(Oc2c(-c3ccc(OC(F)(F)F)cc3)sc3cc(O)ccc23)cc1 [Example 59, (E)-3-(4-((6-hydroxy-2-(4-(trifluoromethoxy)-phenyl)benzo[b]thiophen-3-yl)oxy)phenyl)-acrylic acid] | 1250 nM |
| O=C(O)/C=C/c1ccc(Oc2c(-c3ccccc3)sc3cc(O)ccc23)cc1 [Example 60, (E)-3-(4-((6-hydroxy-2-phenylbenzo[b]thiophen-3-yl)oxy)phenyl)-acrylic acid] | 2310 nM |
| Cc1cc(-c2sc3cc(O)ccc3c2Oc2ccc(/C=C/C(=O)O)cc2)ccc1O [Example 61, (E)-3-(4-((6-hydroxy-2-(4-hydroxy-3-methylphenyl)benzo[b]-thiophen-3-yl)oxy)phenyl)acrylic acid] | 327 nM |
| C/C(=C\C(=O)O)c1ccc(Oc2c(-c3ccc(O)cc3)sc3cc(O)ccc23)cc1 [Example 62, (E)-3-(4-((6-hydroxy-2-(4-hydroxyphenyl)-benzo[b]thiophen-3-yl)oxy)phenyl)but-2-enoic acid] | 316 nM |
| CNC(=O)/C=C/c1ccc(Oc2c(-c3ccc(C(F)(F)F)cc3)sc3cc(O)ccc23)cc1 [Example 63, (E)-3-(4-((6-hydroxy-2-(4-(trifluoromethyl)-phenyl)benzo[b]thiophen-3-yl)oxy)phenyl)-N-methylacrylamide] | 185 nM |
| NC(=O)/C=C/c1ccc(Oc2c(-c3ccc(O)cc3)sc3cc(O)ccc23)cc1 [Example 64, (E)-3-(4-((6-hydroxy-2-(4-hydroxyphenyl)-benzo[b]thiophen-3-yl)oxy)phenyl)acrylamide] | 40 nM |
| O=C(/C=C/c1ccc(Oc2c(-c3ccc(O)cc3)sc3cc(O)ccc23)cc1)NCCO [Example 65, (E)-3-(4-((6-hydroxy-2-(4-hydroxyphenyl)benzo[b]-thiophen-3-yl)oxy)phenyl)-N-(2-hydroxyethyl)acrylamide] | 55 nM |

Source: US8877801B2, “Compounds and compositions as selective estrogen receptor degraders” (Novartis AG, priority 2013, dated 2014)
